Values of other authors, collected in patent US9315472B2, “1,3,5-triazinane-2,4,6-trione derivatives and uses thereof” (Massachusetts Institute of Technology, priority 2013, dated 2016).
Read-outs that look alike come from different tables or passages of the source.

Columns and labels:
[1] = mouse, in vivo, po
[2] = rat, in vivo, po

## O=c1n(CC2CO2)c(=O)n(CC2CO2)c(=O)n1CC1CO1 (centres unmarked) [Compound 1]
[1]
  tolerability: tolerated
[2]
  tolerability: tolerated
